Source: ChEMBL document CHEMBL4665648, “Potent and selective inhibitors of receptor-interacting protein kinase 1 that lack an aromatic back pocket group” (Bioorg Med Chem Lett, 2019)

Key:
[1] = biological target: Protein-tyrosine kinase 6 (Homo sapiens) (UniProt Q13882); assay: Inhibition of recombinant human His-tagged full length BRK expressed in baculovirus expression system using Tyr 01 as substrate at 10 uM incubated for 60 mins by Z'-Lyte assay relative to control
[2] = biological target: Serine/threonine-protein kinase Nek6 (Homo sapiens) (UniProt Q9HC98); assay: Inhibition of recombinant human GST-tagged full length NEK6 expressed in insect expression system using Ser/Thr 22 as substrate at 10 uM incubated for 60 mins by Z'-lyte assay relative to control
Chain of Serine/threonine-protein kinase Nek6 (Homo sapiens) (Q9HC98 whole entry): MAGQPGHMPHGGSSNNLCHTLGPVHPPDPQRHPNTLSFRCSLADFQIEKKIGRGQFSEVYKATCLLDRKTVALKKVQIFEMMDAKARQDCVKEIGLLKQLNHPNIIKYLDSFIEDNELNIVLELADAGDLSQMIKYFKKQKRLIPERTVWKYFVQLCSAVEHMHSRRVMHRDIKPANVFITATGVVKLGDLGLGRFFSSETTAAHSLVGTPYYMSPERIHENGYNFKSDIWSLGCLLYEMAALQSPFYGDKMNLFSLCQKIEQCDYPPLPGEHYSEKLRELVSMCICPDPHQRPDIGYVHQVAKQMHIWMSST

[3] = biological target: Serine/threonine-protein kinase Chk1 (Homo sapiens) (UniProt O14757); assay: Inhibition of recombinant human His-tagged full length CHK1 expressed in baculovirus expression system using Ser/Thr 19 as substrate at 10 uM incubated for 60 mins by Z'-Lyte assay relative to control
[4] = biological target: Megakaryocyte-associated tyrosine-protein kinase (Homo sapiens) (UniProt P42679); assay: Inhibition of recombinant human His-tagged full length Hyl expressed in Escherichia coli expression system using Tyr 01 as substrate at 10 uM incubated for 60 mins by Z'-Lyte assay relative to control
[5] = biological target: Dual specificity tyrosine-phosphorylation-regulated kinase 3 (Homo sapiens) (UniProt O43781); assay: Inhibition of recombinant human GST-tagged full length DYRK3 expressed in baculovirus expression system using Ser/Thr 9 as substrate at 10 uM incubated for 60 mins by Z'-Lyte assay relative to control
Chain of Dual specificity tyrosine-phosphorylation-regulated kinase 3 (Homo sapiens) (O43781 whole entry, the tested form may be a part): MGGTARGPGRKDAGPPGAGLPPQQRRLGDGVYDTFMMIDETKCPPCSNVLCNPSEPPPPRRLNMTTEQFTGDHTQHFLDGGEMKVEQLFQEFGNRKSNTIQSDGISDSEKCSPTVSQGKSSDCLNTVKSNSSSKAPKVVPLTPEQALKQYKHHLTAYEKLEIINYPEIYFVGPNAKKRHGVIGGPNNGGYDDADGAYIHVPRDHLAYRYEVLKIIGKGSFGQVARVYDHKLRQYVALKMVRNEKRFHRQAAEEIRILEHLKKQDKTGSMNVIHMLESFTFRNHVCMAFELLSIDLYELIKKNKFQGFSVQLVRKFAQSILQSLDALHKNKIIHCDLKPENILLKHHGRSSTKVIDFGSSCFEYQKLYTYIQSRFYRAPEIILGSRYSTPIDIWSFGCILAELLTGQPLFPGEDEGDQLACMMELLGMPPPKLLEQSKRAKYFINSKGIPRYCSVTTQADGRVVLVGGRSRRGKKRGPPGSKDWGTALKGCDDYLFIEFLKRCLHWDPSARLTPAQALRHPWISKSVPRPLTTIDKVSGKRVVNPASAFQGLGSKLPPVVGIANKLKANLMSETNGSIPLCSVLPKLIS

[6] = biological target: Rho-associated protein kinase 1 (Homo sapiens) (UniProt Q13464); assay: Inhibition of recombinant human GST-tagged ROCK1 (1 to 535 residues) expressed in baculovirus expression system using Ser/Thr 07 as substrate at 10 uM incubated for 60 mins by Z'-Lyte assay relative to control
[7] = biological target: MAP kinase-interacting serine/threonine-protein kinase 2 (Homo sapiens) (UniProt Q9HBH9); assay: Inhibition of tracer 236 binding to recombinant human N-terminal GST-tagged full length MKNK2 expressed in baculovirus expression system at 10 uM incubated for 60 mins by Lanthascreen assay relative to control
Chain of MAP kinase-interacting serine/threonine-protein kinase 2 (Homo sapiens) (Q9HBH9 whole entry, looked up): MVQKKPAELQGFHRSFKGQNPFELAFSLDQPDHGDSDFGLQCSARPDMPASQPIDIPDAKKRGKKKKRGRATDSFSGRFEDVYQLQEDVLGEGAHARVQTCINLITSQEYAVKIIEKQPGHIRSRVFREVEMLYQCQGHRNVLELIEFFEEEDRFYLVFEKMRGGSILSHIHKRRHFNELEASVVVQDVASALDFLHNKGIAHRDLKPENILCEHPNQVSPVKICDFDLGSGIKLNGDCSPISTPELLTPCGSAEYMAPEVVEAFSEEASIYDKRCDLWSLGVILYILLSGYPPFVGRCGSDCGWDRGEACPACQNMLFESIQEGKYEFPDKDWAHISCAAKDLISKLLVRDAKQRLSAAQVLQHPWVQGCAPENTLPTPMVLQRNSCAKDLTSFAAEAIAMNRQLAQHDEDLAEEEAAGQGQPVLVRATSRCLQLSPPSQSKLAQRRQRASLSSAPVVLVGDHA

[8] = biological target: Beta-adrenergic receptor kinase 1 (Homo sapiens) (UniProt P25098); assay: Inhibition of recombinant human His-tagged full length GRK2 expressed in baculovirus expression system using Ser/Thr 16 as substrate at 10 uM incubated for 60 mins by Z'-Lyte assay relative to control
[9] = biological target: Protein kinase C zeta type (Homo sapiens) (UniProt Q05513); assay: Inhibition of recombinant human untagged full length PKCzeta expressed in baculovirus expression system using Ser/Thr 07 as substrate at 10 uM incubated for 60 mins by Z'-lyte assay relative to control
[10] = biological target: Aurora kinase A (Homo sapiens) (UniProt O14965); assay: Inhibition of recombinant human His-tagged full length Aurora A expressed in baculovirus expression system using Ser/Thr 01 as substrate at 10 uM incubated for 60 mins by Z'-Lyte assay relative to control
Chain of Aurora kinase A (Homo sapiens) (O14965 whole entry): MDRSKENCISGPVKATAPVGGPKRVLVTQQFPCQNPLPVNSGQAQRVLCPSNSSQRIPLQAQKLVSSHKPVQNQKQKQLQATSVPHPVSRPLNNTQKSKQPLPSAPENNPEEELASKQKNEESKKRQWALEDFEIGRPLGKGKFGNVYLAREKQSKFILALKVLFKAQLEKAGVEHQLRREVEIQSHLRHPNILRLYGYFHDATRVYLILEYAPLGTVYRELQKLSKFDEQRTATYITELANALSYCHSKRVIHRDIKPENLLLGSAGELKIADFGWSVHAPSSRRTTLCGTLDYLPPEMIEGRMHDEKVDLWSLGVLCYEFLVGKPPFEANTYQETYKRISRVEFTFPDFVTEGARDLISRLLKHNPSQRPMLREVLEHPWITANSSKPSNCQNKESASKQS

[11] = biological target: Mitogen-activated protein kinase 10 (Homo sapiens) (UniProt P53779); assay: Inhibition of recombinant human N-terminal GST-tagged full length JNK3 expressed in baculovirus expression system using Ser/Thr 04 as substrate at 10 uM incubated for 60 mins by Z'-lyte assay relative to control
[12] = biological target: Mitogen-activated protein kinase kinase kinase 20 (Homo sapiens) (UniProt Q9NYL2); assay: Inhibition of tracer 178 binding to recombinant human N-terminal GST-tagged full length ZAK expressed in baculovirus expression system at 10 uM incubated for 60 mins by Lanthascreen assay relative to control
Chain of Mitogen-activated protein kinase kinase kinase 20 (Homo sapiens) (Q9NYL2 2-800 limits assumed): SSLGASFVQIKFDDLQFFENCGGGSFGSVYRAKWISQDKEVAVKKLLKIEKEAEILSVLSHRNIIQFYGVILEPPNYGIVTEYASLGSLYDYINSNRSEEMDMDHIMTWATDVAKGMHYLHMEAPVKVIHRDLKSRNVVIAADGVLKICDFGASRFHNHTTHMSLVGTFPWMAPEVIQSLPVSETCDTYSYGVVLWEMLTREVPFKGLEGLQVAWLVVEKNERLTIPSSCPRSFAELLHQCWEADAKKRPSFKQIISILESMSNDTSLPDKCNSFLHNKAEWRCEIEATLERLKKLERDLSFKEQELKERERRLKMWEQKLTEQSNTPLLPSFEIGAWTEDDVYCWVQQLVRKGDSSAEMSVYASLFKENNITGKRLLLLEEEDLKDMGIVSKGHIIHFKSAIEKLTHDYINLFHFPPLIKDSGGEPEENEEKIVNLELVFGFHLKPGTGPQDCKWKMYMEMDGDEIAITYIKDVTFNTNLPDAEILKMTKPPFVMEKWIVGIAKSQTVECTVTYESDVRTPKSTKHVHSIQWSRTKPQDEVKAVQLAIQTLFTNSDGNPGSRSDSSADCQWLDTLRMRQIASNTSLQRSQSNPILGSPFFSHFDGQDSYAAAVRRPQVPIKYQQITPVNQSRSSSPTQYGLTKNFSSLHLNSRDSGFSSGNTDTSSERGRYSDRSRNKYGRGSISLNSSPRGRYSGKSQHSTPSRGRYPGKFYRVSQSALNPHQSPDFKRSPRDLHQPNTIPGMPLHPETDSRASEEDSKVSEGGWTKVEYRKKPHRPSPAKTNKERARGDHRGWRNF

[13] = biological target: Tyrosine-protein kinase ABL1 (Homo sapiens) (UniProt P00519); assay: Inhibition of recombinant human His-tagged full length Abl expressed in baculovirus expression system using Tyr 02 as substrate at 10 uM incubated for 60 mins by Z'-Lyte assay relative to control
[14] = Lipophilicity, logD of compound at pH 7.4; assay type: physicochemical; settings: buffer
[15] = biological target: Homeodomain-interacting protein kinase 2 (Homo sapiens) (UniProt Q9H2X6); assay: Inhibition of recombinant human N-terminal GST-tagged HIPK2 expressed in baculovirus expression system using Ser/Thr 09 as substrate at 10 uM incubated for 60 mins by Z'-Lyte assay relative to control
[16] = biological target: Serine/threonine-protein kinase pim-1 (Homo sapiens) (UniProt P11309); assay: Inhibition of recombinant human His-tagged full length PIM1 expressed in baculovirus expression system using Ser/Thr 07 as substrate at 10 uM incubated for 60 mins by Z'-lyte assay relative to control
Chain of Serine/threonine-protein kinase pim-1 (Homo sapiens) (P11309 whole entry, looked up): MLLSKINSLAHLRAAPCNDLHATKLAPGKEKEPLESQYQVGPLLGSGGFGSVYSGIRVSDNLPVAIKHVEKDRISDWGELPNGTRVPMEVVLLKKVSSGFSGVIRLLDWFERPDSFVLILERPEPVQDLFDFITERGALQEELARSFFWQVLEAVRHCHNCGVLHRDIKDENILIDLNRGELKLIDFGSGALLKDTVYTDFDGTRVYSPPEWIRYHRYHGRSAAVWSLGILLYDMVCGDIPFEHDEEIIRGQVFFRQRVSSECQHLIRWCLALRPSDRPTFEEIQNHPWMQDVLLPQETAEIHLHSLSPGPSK

[17] = biological target: Protein kinase C delta type (Homo sapiens) (UniProt Q05655); assay: Inhibition of recombinant human GST-tagged full length PKCdelta expressed in insect expression system using Ser/Thr 07 as substrate at 10 uM incubated for 60 mins by Z'-lyte assay relative to control
[18] = biological target: Interleukin-1 receptor-associated kinase 4 (Homo sapiens) (UniProt Q9NWZ3); assay: Inhibition of recombinant human His-tagged full length IRAK4 expressed in baculovirus expression system using Ser/Thr 07 as substrate at 10 uM incubated for 60 mins by Z'-Lyte assay relative to control
[19] = biological target: Homeodomain-interacting protein kinase 1 (Homo sapiens) (UniProt Q86Z02); assay: Inhibition of recombinant human N-terminal GST-tagged HIPK1 (158 to 555 residues) expressed in baculovirus expression system using Ser/Thr 09 as substrate at 10 uM incubated for 60 mins by Z'-Lyte assay relative to control
Chain of Homeodomain-interacting protein kinase 1 (Homo sapiens) (Q86Z02 whole entry, looked up, the tested form may be a part): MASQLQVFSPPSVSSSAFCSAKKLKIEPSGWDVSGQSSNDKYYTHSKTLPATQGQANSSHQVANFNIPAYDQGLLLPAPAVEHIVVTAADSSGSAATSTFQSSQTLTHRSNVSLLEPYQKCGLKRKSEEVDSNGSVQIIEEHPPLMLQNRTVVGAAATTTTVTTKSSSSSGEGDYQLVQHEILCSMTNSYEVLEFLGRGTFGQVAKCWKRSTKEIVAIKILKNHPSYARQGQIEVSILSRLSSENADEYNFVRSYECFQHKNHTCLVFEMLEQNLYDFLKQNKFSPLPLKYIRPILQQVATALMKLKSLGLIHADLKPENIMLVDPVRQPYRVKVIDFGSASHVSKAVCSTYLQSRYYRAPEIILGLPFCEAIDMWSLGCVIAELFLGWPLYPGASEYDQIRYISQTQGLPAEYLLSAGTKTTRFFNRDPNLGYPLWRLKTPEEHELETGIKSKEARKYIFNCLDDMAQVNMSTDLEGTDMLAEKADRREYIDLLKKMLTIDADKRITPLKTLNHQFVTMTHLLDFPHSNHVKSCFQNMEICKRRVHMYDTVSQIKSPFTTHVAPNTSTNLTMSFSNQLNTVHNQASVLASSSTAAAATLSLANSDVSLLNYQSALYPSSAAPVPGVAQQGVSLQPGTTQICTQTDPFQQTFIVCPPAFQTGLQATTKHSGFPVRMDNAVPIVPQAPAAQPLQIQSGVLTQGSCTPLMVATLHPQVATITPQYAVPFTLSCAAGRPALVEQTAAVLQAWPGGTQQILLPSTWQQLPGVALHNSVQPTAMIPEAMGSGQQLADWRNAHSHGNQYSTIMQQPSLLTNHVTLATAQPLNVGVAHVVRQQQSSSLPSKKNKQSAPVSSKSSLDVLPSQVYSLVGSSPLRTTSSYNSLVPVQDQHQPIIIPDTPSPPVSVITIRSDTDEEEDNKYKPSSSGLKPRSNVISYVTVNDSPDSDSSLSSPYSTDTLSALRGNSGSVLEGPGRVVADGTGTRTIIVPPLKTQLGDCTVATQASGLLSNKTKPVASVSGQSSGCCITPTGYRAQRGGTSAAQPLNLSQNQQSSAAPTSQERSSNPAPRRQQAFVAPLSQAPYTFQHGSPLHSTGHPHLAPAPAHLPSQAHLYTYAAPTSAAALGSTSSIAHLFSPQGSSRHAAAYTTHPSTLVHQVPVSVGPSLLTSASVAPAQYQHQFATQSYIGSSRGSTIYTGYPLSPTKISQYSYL

[20] = biological target: Mitogen-activated protein kinase kinase kinase 5 (Homo sapiens) (UniProt Q99683); assay: Inhibition of tracer 236 binding to recombinant human GST-tagged full length ASK1 expressed in baculovirus expression system at 10 uM incubated for 60 mins by Lanthascreen assay relative to control
[21] = biological target: Phosphorylase b kinase gamma catalytic chain, skeletal muscle/heart isoform (Homo sapiens) (UniProt Q16816); assay: Inhibition of recombinant human GST-tagged full length PHKG1 expressed in baculovirus expression system using Ser/Thr 07 as substrate at 10 uM incubated for 60 mins by Z'-lyte assay relative to control
[22] = biological target: Tyrosine-protein kinase receptor UFO (Homo sapiens) (UniProt P30530); assay: Inhibition of recombinant human GST-tagged full length AXL expressed in insect expression system using Tyr 06 as substrate at 10 uM incubated for 60 mins by Z'-Lyte assay relative to control
Chain of Tyrosine-protein kinase receptor UFO (Homo sapiens) (P30530 whole entry): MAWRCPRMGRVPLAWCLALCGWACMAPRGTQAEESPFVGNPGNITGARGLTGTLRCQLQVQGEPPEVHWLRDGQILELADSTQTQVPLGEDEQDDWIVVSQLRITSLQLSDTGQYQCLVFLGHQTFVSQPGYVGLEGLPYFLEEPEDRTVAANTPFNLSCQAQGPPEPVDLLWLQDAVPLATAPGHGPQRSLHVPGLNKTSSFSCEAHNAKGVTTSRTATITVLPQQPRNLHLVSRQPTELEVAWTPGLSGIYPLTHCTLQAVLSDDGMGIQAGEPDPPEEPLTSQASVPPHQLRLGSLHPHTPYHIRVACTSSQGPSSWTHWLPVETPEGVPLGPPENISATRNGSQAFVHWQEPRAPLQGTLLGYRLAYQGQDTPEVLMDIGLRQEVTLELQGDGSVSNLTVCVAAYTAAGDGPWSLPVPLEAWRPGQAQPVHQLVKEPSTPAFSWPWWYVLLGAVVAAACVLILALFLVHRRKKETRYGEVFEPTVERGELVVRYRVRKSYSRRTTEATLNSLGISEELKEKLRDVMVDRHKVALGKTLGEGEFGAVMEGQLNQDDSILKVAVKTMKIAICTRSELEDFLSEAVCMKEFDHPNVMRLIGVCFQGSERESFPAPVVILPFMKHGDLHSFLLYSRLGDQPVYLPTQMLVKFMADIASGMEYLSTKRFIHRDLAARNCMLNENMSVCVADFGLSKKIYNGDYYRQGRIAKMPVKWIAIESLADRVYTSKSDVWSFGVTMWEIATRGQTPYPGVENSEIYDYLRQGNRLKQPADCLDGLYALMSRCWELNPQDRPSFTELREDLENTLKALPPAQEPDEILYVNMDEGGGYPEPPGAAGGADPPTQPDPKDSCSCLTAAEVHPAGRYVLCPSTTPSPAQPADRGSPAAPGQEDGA

[23] = biological target: Sphingosine kinase 1 (Homo sapiens) (UniProt Q9NYA1); assay: Inhibition of recombinant human GST-tagged full length SPHK1 expressed in baculovirus expression system using sphingosine lipid substrate mixture as substrate at 10 uM incubated for 60 mins by Adapta assay relative to control
[24] = biological target: Serine/threonine-protein kinase DCLK2 (Homo sapiens) (UniProt Q8N568); assay: Inhibition of recombinant human GST-tagged full length DCAMKL2 expressed in baculovirus expression system using Ser/Thr 17 as substrate at 10 uM incubated for 60 mins by Z'-Lyte assay relative to control
[25] = biological target: Angiopoietin-1 receptor (Homo sapiens) (UniProt Q02763); assay: Inhibition of recombinant human GST-tagged TIE2 (817 to 1101 residues) expressed in baculovirus expression system using Ser/Thr 05 as substrate at 10 uM incubated for 60 mins by Z'-Lyte assay relative to control

CN1C(=O)[C@@H](NC(=O)c2n[nH]c3ncc(C(F)(F)C(F)(F)F)cc23)COc2ccccc21
inhibition [1]: 0.5% | inhibition [2]: 4% | inhibition [3]: -1% | inhibition [4]: 3.5% | inhibition [5]: 7% | inhibition [6]: -8.5% | inhibition [7]: 1% | inhibition [8]: -0.5% | inhibition [9]: 5.5% | inhibition [10]: 0% | inhibition [11]: 7% | inhibition [12]: 6.5% | inhibition [13]: 5% | logD [14]: 4.1 | inhibition [15]: 7% | inhibition [16]: -5% | inhibition [17]: 0.5% | inhibition [18]: 6.5% | inhibition [19]: 5% | inhibition [20]: 0.5% | inhibition [21]: 9% | inhibition [22]: 6.5% | inhibition [23]: -8% | inhibition [24]: -3.5% | inhibition [25]: 8.5%
